# Legend:
# [1] = test system: U-937 human myeloid leukemia cells; assay: Dendritogenesis on U-937 human myeloid leukemia cells; assay type: cell-based; details: 1 nM
# Description: 2) On U-937 Human Myeloid Leukemia Cells
# U-937 cells = assay: Production of IL-12p70 and IL-10 by the dendritic cells (ELISA); assay type: cell-based, human
# Method: The culture supernatants are frozen at a temperature of −80° C. until the time of testing for the presence of cytokines. The presence of IL-12p70 and IL-10 is measured using ELISA kits obtained from “Endogen” (Woburn, Mass., USA).
# This phenomenon continues for the two weeks of treatment.
# [2] = test system: T lymphocytes originating from BALB/c mouse spleens; assay: Proliferation of T lymphocytes (tritiated thymidine incorporation); assay type: cell-based; details: C57BL/6 dendritic cells in contact with BALB/c T lymphocytes
# Method: C57BL/6 mouse monocytes were collected as indicated in example 48.1. The dendritic cells were obtained as indicated in example 9. After transformation into CDs with the test compound, the cells are treated with an antimitotic agent (mitomycin C at 0.0006 mg/ml) and incubated for 30 minutes at 37° C., in order to block DNA synthesis in the CDs. After this treatment, the cells are washed twice with RPMI 1640 medium supplemented with 10% fetal calf serum.
# BALB/c mouse spleens were also collected and treated as described for the preparation of the C57BL/6 mouse monocytes. The nonadherent cells, which contain the T lymphocytes, are recovered and added to the C57BL/6 mouse dendritic cells. On the fourth day of contact of the cells, tritiated thymidine is added. After incubation for 18 hours, the cells are lyzed with absolute alcohol. The precipitate is suspended in water and then filtered through a cellulose filter. The incorporation of thymidine is measured by scintillation counting (Packard Instrument, Meriden Conn., USA).
# The adherent monocytes originating from mouse spleens obtained according to example 14.1 were treated with the abovementioned compound at variable doses. […] The lymphocyte proliferation is measured by measuring the incorporation of tritiated thymidine into the DNA.
# TS/A (H-2^d) cells = assay: Cytotoxicity on TS/A mouse mammary adenocarcinoma cells in culture; assay type: cell-based
# Method: The mouse tumoral line TS/A(H-2^d) is a cell line of a spontaneous mammary adenocarcinoma of syngenic mice of BALB/c mice. They are cultured in mycoplasm-free controlled RPMI 1640 medium supplemented with endotoxin-free controlled fetal calf serum (Girco-Brio, 2 mM of glutamine, 100 U/ml of penicillin, 50 μg/ml of streptomycin, essential amino acids and sodium pyruvate.
# The cytotoxicity appears for doses of 50 μM.
# [3] = test system: TS/A tumors implanted onto BALB/c mice; assay: Growth tests on tumors implanted onto BALB/c mice; assay type: in vivo; details: for tumor growth relative to the control mice: intradermal in the region of the tumor
# Method: The tumors are implanted in the following manner: 1×10^6 TS/A cells are inoculated by intradermal injection into the right side of the abdomen of 5-6-week-old BALB/c mice (Janvier breeding station, Le Genest Saint Isle).
# The test molecule is the one corresponding to example 9; it is injected on the third day intradermally in the region of the tumor; the result is shown in FIG. 7.
# The same experiment as that described above was repeated, changing the area of injection of the molecule corresponding to example 9; the injection is performed on the third day after implantation of the tumor, intradermally into the controlateral position relative to said implantation. […] This illustrates the efficacy of the treatment for an administration of the test compound remote from the tumor. The results obtained are represented by the curves in FIG. 17.
# A549 cells = assay: Induction of vacuole production in the A549 tumoral cell line; assay type: cell-based, human
# Method: A549 cells were treated with 100 nM of compound according to example 9, for 12 hours.
# The A549 cells were obtained from the American Tissue Culture Collection (ATCC); they were inoculated at a density of 50 000 cells per well into 12-well plates and were cultured in RPMI medium supplemented with 5% fetal calf serum. To perform the treatment with the compound according to the invention, the cells are incubated with said compound (or with a control product) for 48 hours. The cells are then observed by phase-contrast microscopy every four hours to monitor the formation of vacuoles, and are then fixed with 0.4% paraformaldehyde solution in phosphate-buffered saline (PBS) at pH 7.4.
# To obtain photograph D indicated above, the process was performed as follows: after treating the cells, the culture medium is removed and the cells are washed with PBS at pH 7.4. The cells are incubated for 10 minutes with 1 μM solutions of monodansyl cadaverine (MDC). They are then rinsed thoroughly with PBS solution at 4° C. One drop of “Vectashield” solution (Vector Laboratories, CA) is added before mounting between microscope slide and cover slip: the cells are then observed rapidly under the microscope and photographed.
# The A549 cells treated as indicated above with the compound according to example 9 were also examined by electron microscopy. To examine these A549 cells by electron microscopy, they are fixed using a solution of PBS containing 3% glutaraldehyde, taken up in resin (EPON) and finally cut into thin slices using an ultra-microtome. These slices are then placed on 200-mesh copper grilles and examined by electron microscopy. […] In this FIG. 11, the letters used have the following meanings: N=nucleus; C=cytoplasm; M=mitochondria; Vi=intracytoplasmic vesicles; Ve=extracellular vesicles; MLB=multilamellar body.
# [4] = test system: U937 cells expressing RCPG-HA; assay: Overexpression of a membrane receptor in the U937 tumoral cell line; assay type: cell-based, human; details: 10 nM, 12 hours, 48 hours after transfection
# Method: U937 cells were cultured in an “RPMI 1640” medium sold by the company “Gibco BRL”. A plasmid coding for an […] membrane receptor belonging to the superfamily of protein G-coupled receptors and containing an HA label is generated.
# The U937 cells expressing the receptors are generated by transfection using the “lipofectamine” reagent according to the manufacturer's instructions.
# 48 hours after transfection, the transfected cells were treated with 10 nM of compound according to example 9 for 12 hours.
# These cells were fixed in order to be examined by fluorescence microscopy.
smiles,measurement,setting,value
"CC(C)CCC[C@@H](C)[C@H]1CC[C@H]2[C@@H]3C[C@@H](NCCc4c[nH]cn4)[C@@]4(O)C[C@@H](O)CC[C@]4(C)[C@H]3CC[C@]12C [Example 9, cholestane-3β,5α-diol-6β-N-[2-ethylamino(1H-imidazol-4-yl)]]",formation of rosettes (aggregate of entangled cells),[1]; after treatment for 5 days,formation of a large number of rosettes
same,size of the dendrites,[1]; after treatment for 5 days,up to 100 μm
same,induction of differentiation of the U-937 cells into dendritic cells,"[1]; treatment for 2 days, after 10 ng/ml PMA",appearance of dendritic cells
same,production of the p70 subunit of IL-12,"U-937 cells; from 36 hours after the start of the treatment, continues for the two weeks of treatment",stimulates the production of the p70 subunit of IL-12
same,transcription/production of IL-10,U-937 cells; treatments extending over a period of two weeks,does not stimulate the transcription of IL-10
same,stimulation of the T lymphocyte proliferation (factor),[2],5
same,toxicity on TS/A cells,"TS/A (H-2^d) cells; doses of 5 nM and 1 μM, irrespective of the incubation time",no toxicity is observed
same,dose at which cytotoxicity on TS/A appears,TS/A (H-2^d) cells; in vitro,50 µM
same,tumor growth relative to the control mice,"[3]; 8.5 ng/g of mouse, third day",slowing-down effect
same,tumor growth relative to the control mice,"[3]; 1.7 μg/g of mouse, third day",no tumor is detectable
same,"tumor growth relative to the control mice, administration remote from the tumor","[3]; 1.7 μg/g of mouse, intradermal, controlateral position, third day",slowing-down of the tumoral growth
same,"peripheral lymphoid system, activation of the immune system","[3]; 1.7 μg/g, whether or not a tumor has been implanted",hyperplasia of the peripheral lymphoid system is observed
same,necrosis in the area of injection (anatomopathology),[3]; intradermal injection,no trace of necrosis is observable
same,induction of vacuole production in A549 cells,"A549 cells; 100 nM, 12 hours",massive production of cytoplasmic vacuoles
same,dose dependence of the vacuole effect,A549 cells; A549 cells,dose-dependent
same,time after the treatment at which the vacuole effect appears,A549 cells; A549 cells,six
same,time after the treatment at which the vacuole effect reaches a maximum,A549 cells; A549 cells,12 h
same,electron microscopy of treated A549 cells,A549 cells; FIG. 11.2,numerous vacuoles and mitochondria are also observed in the cytoplasm
same,reversibility of the vacuole effect,A549 cells; growth medium replaced with fresh medium,reversible
same,expression of RCPG-HA membrane receptor (immunofluorescence),[4],expression of a membrane receptor of RCPG type
